Data on one compound can be found in BindingDB's records for doi:10.1021/jm960495w (Hokkaido University, 1997).

The nature of the assay: Percentage inhibition of N-methyl-D-aspartic acid (NMDA) receptor produced by oocytes.

Compound `CCC(N)[C@@H]1C[C@@]1(C(=O)N(CC)CC)c1ccccc1` (stereo partly drawn) [(1S,2R)-2-(1-Amino-propyl)-1-phenyl-cyclopropanecarboxylic acid diethylamide] registered an IC50 of 51 µM. This lies in the double-digit micromolar range.

As usually defined, the IC50 is the concentration at which inhibition is half-maximal. Read a low IC50 as greater potency in that assay.
